Results published in US4340539A, “Derivatives of 6-bromo penicillanic acid” (priority 1980, dated 1982).
Read-outs that look alike come from different tables or passages of the source.

Legend:
β-lactamase enzyme RTEM = conditions: cited from earlier work
Hygroscopicity = format: physicochemical; conditions: listed as 2β-chloromethyl-2α-methylpenam-3α-carboxylic acid sulfone
[1] = Storage stability of free acid; format: physicochemical; conditions: 23° C., seven days
[2] = Blood levels and half-life of BL-P2024 after oral administration of various doses to mice (Table 5); format: in vivo; conditions: mouse; for concentration at 0.5 h: 30 min; for concentration at 2 h: 120 min; for concentration at 1 h: 60 min
in vivo = experiment: in vivo; set-up: species or system mice; conditions: mouse, blood, po, 100 mg/kg, Test 2, oral 100 mg/kg, 60 min; read-out: Blood level
Description: Compounds prepared in 5% Propylene Glycol & TweenCMC-H2 O.
Values in parentheses are 95% confidence limits.
Assay Organism: E. coli A9675 (pH = 6.6, 0.1% inoculum)

[3] = test system: β-lactamase producing strains of E. coli; experiment: Therapeutic efficacy of amoxicillin in combinations with BL-P2024 in infected mice (Table 7); format: in vivo; conditions: oral
[4] = test system: β-lactamase producing strains of S. aureus; experiment: as above; format: in vivo; conditions: Staphylococcus aureus, po, read-out: PD50/Treatment
[5] = Blood levels after oral administration to mice (Table 4); format: in vivo; conditions: mouse; for concentration at […]: assay organism S. aureus A-9606, read-out: Blood level
[6] = test system: β-lactamase-producing strains; conditions: in vitro and in vivo; cited from earlier work
bacteria = conditions: cited from earlier work
β-lactamase = conditions: cited from earlier work
[7] = oral 25 mg/kg, read-out: Blood level
[8] = oral 50 mg/kg, read-out: Blood level
[9] = oral 100 mg/kg, read-out: Blood level
[10] = oral 200 mg/kg, assay organism S. aureus A9606, read-out: Blood level

CC1(C)[C@H](C(=O)O)N2C(=O)C(Br)[C@H]2S1(=O)=O (stereo partly drawn) [(2S,5R,6S)-6β-Bromo-3,3-dimethyl-7-oxo-4-thia-1-azabicyclo[3.2.0]heptane-2-carboxylic acid, S,S-dioxide]
inhibition of RTEM (β-lactamase enzyme RTEM): inhibit the action of the β-lactamase enzyme RTEM

CC1(CCl)C(C(=O)O)N2C(=O)CC2S1(=O)=O (stereo not drawn) [BL-P2013 free acid, 2β-chloromethyl-2α-methylpenam-3α-carboxylic acid sulfone]
hygroscopicity (Hygroscopicity): hygroscopic
storage stability [1]: unstable

CC(C)(C)C(=O)OCOC(=O)C1N2C(=O)CC2S(=O)(=O)C1(C)CCl (stereo not drawn) [BL-P2024, Pivaloyloxymethyl 2β-Chloromethyl-2α-methylpenam-3α-carboxylate Sulfone]
half-life ([2]; oral 25 mg/kg): 0.667 h
concentration at […] ([2]; oral 25 mg/kg, 15 min, read-out: Blood level): 5.9 µg/mL
concentration at 0.5 h [2, 7]: 6.2 µg/mL
concentration at […] ([2]; oral 25 mg/kg, 90 min, read-out: Blood level): 1.9 µg/mL
concentration at 2 h [2, 7]: 1.3 µg/mL
concentration at […] ([2]; oral 25 mg/kg, 150 min, read-out: Blood level): 0.7 µg/mL
half-life ([2]; oral 50 mg/kg): 1 h
concentration at […] ([2]; oral 50 mg/kg, 15 min, read-out: Blood level): 7.7 µg/mL
concentration at 0.5 h [2, 8]: 9.5 µg/mL
concentration at 1 h [2, 8]: 6.3 µg/mL
concentration at […] ([2]; oral 50 mg/kg, 90 min, read-out: Blood level): 4.7 µg/mL
concentration at […] ([2]; oral 50 mg/kg, 150 min, read-out: Blood level): 2.3 µg/mL
half-life ([2]; oral 100 mg/kg): 1.42 h
concentration at […] ([2]; oral 100 mg/kg, 15 min, read-out: Blood level): 12.3 µg/mL
concentration at 0.5 h [2, 9]: 12.2 µg/mL
concentration at 1 h [2, 9]: 9.4 µg/mL
concentration at […] ([2]; oral 100 mg/kg, 90 min, read-out: Blood level): 7.2 µg/mL
concentration at 2 h [2, 9]: 5.7 µg/mL
concentration at […] ([2]; oral 100 mg/kg, 150 min, read-out: Blood level): 4.6 µg/mL
concentration at […] ([2]; oral 200 mg/kg, 15 min, assay organism S. aureus A9606, read-out: Blood level): 14.7 µg/mL
concentration at 0.5 h [2, 10]: 14.4 µg/mL
concentration at 1 h [2, 10]: 9.8 µg/mL
concentration at […] ([2]; oral 200 mg/kg, 90 min, assay organism S. aureus A9606, read-out: Blood level): 8.7 µg/mL
concentration at 2 h [2, 10]: 5.1 µg/mL
half-life ([2]; oral 200 mg/kg, assay organism S. aureus A9606): 1 h
concentration at 1 h (in vivo): 7.8 µg/mL
PD50/Treatment ([3]; E. coli A9675, challenge 6 × 10^5, vehicle TCMC): > 200 mg/kg
PD50/Treatment ([3]; E. coli A9675, challenge 7 × 10^5, vehicle 50% DMSO): > 25 mg/kg
PD50/Treatment ([3]; E. coli A9675, challenge 7 × 10^5, vehicle TCMC): > 25 mg/kg
PD50/Treatment ([3]; E. coli A9675, challenge 9 × 10^5, vehicle 50% DMSO): > 25 mg/kg
ED50 ([4]; S. aureus A15091, challenge 5 × 10^8, vehicle TCMC): > 200 mg/kg
ED50 ([4]; S. aureus A20379, challenge 5 × 10^8, vehicle TCMC): 200 mg/kg
concentration at […] ([5]; 100 mg/kg, oral 100 mg/kg, 15 min): 13.1 µg/mL
half-life ([5]; 100 mg/kg, oral 100 mg/kg, assay organism E. coli A-9675): 1.17 h
half-life ([5]; 100 mg/kg, oral 100 mg/kg, assay organism S. aureus A-9606): 1 h
concentration at […] ([5]; 200 mg/kg, oral 200 mg/kg, 150 min): > 2.5 µg/mL
half-life ([5]; 200 mg/kg, oral 200 mg/kg, assay organism S. aureus A-9606): 1 h

CC1(C)[C@H](C(=O)O)N2C(=O)C[C@H]2S1(=O)=O [CP-45899]
potentiation of ampicillin [6]: potentiates the in vitro and in vivo activities of ampicillin
antibacterial activity (bacteria): weak antibacterial activity
β-lactamase inhibition (β-lactamase): irreversibly acting β-lactamase inhibitor
